Results reported in ChEMBL document CHEMBL5346874, “New antiplasmodial 4-amino-thieno[3,2-d]pyrimidines with improved intestinal permeability and microsomal stability” (Eur J Med Chem, 2023).

Tested on: Plasmodium falciparum
Assay: Antiplasmodial activity against blood stage Plasmodium falciparum K1 assessed as reduction in parasite growth incubated for 72 hrs by SYBR Green I fluorescence based method
Format: functional, organism-based
Settings: not given
`Cc1ccc(-c2cc3nc(NC(C)(C)C)nc(NCCCN(C)C)c3s2)cc1.Cl.Cl` showed an EC50 of 0.2 µM.
`Cc1ccc(-c2cc3nc(NC(C)(C)C)nc(NCCN(C)C)c3s2)cc1.Cl.Cl` gave an EC50 of 0.4 µM.

Same assay, conditions: Plasmodium falciparum, K1, 72 h
`Cc1ccc(-c2cc3nc(NC(C)(C)C)[nH]c(=O)c3s2)cc1` gave an EC50 of 0.2 µM.
In the case of `Cc1ccc(-c2cc3nc(NC(C)(C)C)nc(NC4CCCC4)c3s2)cc1`, the EC50 is reported as 1.3 µM.
With `Cc1ccc(-c2cc3nc(NC(C)(C)C)nc(N4CCC(C)CC4)c3s2)cc1` the EC50 was 0.7 µM.
`Cc1ccc(-c2cc3nc(NC(C)(C)C)nc(N4CCNCC4)c3s2)cc1` showed an EC50 of 1.6 µM.
In the case of `Cc1ccc(-c2cc3nc(NC(C)(C)C)nc(N4CCCCC4)c3s2)cc1`, the EC50 is reported as 1.2 µM.
`CCN(CC)CCNc1nc(NC(C)(C)C)nc2cc(-c3ccc(C)cc3)sc12` showed an EC50 of 0.3 µM.
In the case of `Cc1ccc(-c2cc3nc(NC(C)(C)C)nc(N4CCC(NCc5ccc(Br)cc5)CC4)c3s2)cc1`, the EC50 is reported as 0.7 µM.
With `COc1ccc(CNC2CCN(c3nc(NC(C)(C)C)nc4cc(-c5ccc(C)cc5)sc34)CC2)cc1` the EC50 was 0.5 µM.
With `Cc1ccc(CSc2cnc(NC(C)(C)C)nc2N2CCC(NCc3cccc(Cl)c3)CC2)cc1` the EC50 was 1.2 µM.
`Cc1ccc(-c2cc3nc(NC(C)(C)C)nc(N4CCSCC4)c3s2)cc1` gave an EC50 of 4.9 µM.
Work on `Cc1ccc(-c2cc3nc(NC(C)(C)C)nc(N4CCC(NCc5ccccc5)CC4)c3s2)cc1` yielded an EC50 of 0.7 µM.
`Cc1ccc(-c2cc3nc(NC(C)(C)C)nc(N4CCN(C)CC4)c3s2)cc1` showed an EC50 of 1.2 µM.
With `Cc1ccc(-c2cc3nc(NC(C)(C)C)nc(NCCN(C)C)c3s2)cc1` the EC50 was 0.3 µM.
For `Cc1ccc(-c2cc3nc(NC(C)(C)C)nc(N4CCC(NCc5ccc(C(F)(F)F)cc5)CC4)c3s2)cc1`, the EC50 was 1.7 µM.
For `Cc1ccc(-c2cc3nc(NC(C)(C)C)nc(N4CCCC4)c3s2)cc1`, the EC50 was 0.9 µM.

Tested on: Plasmodium berghei
Assay: Antimalarial activity against hepatic stage of Plasmodium berghei sporozoites GFP ANKA incubated for 3 hrs followed by replacement with fresh media for every 24 hrs by immunostaining analysis
Format: functional, organism-based
Settings: not given
`Cc1ccc(-c2cc3nc(NC(C)(C)C)nc(NCCCN(C)C)c3s2)cc1.Cl.Cl` gave an EC50 of 14.4 µM.
In the case of `Cc1ccc(-c2cc3nc(NC(C)(C)C)nc(NCCN(C)C)c3s2)cc1.Cl.Cl`, the EC50 is reported as 14.2 µM.

Same assay, conditions: Plasmodium berghei, GFP ANKA
Compound `Cc1ccc(-c2cc3nc(NC(C)(C)C)[nH]c(=O)c3s2)cc1` has an EC50 of 24.3 µM.
With `Cc1ccc(-c2cc3nc(NC(C)(C)C)nc(N4CCC(C)CC4)c3s2)cc1` the EC50 was 35.3 µM.
`CCN(CC)CCNc1nc(NC(C)(C)C)nc2cc(-c3ccc(C)cc3)sc12` showed an EC50 of 14.6 µM.
In the case of `Cc1ccc(-c2cc3nc(NC(C)(C)C)nc(N4CCC(NCc5ccc(Br)cc5)CC4)c3s2)cc1`, the EC50 is reported as 13.1 µM.
For `COc1ccc(CNC2CCN(c3nc(NC(C)(C)C)nc4cc(-c5ccc(C)cc5)sc34)CC2)cc1`, the EC50 was 14 µM.
`Cc1ccc(-c2cc3nc(NC(C)(C)C)nc(N4CCC(NCc5ccccc5)CC4)c3s2)cc1` showed an EC50 of 16.1 µM.
For `Cc1ccc(-c2cc3nc(NC(C)(C)C)nc(NCCN(C)C)c3s2)cc1`, the EC50 was 13.8 µM.
With `Cc1ccc(-c2cc3nc(NC(C)(C)C)nc(N4CCCC4)c3s2)cc1` the EC50 was 14.3 µM.

Tested on: not listed separately
Assay: (§1) Cytotoxicity against cynomolgus monkey Primary hepatocyte assessed as cell viability
Format: toxicity, cell-based, Macaca fascicularis
Settings: primary hepatocytes
For `Cc1ccc(-c2cc3nc(NC(C)(C)C)[nH]c(=O)c3s2)cc1`, the CC50 was > 200 µM.
`Cc1ccc(-c2cc3nc(NC(C)(C)C)nc(N4CCC(C)CC4)c3s2)cc1` gave a CC50 of 52.5 µM.
Compound `CCN(CC)CCNc1nc(NC(C)(C)C)nc2cc(-c3ccc(C)cc3)sc12` has a CC50 of 32.6 µM.
In the case of `Cc1ccc(-c2cc3nc(NC(C)(C)C)nc(N4CCC(NCc5ccc(Br)cc5)CC4)c3s2)cc1`, the CC50 is reported as 20.7 µM.
Work on `COc1ccc(CNC2CCN(c3nc(NC(C)(C)C)nc4cc(-c5ccc(C)cc5)sc34)CC2)cc1` yielded a CC50 of 28.6 µM.
`Cc1ccc(-c2cc3nc(NC(C)(C)C)nc(N4CCC(NCc5ccccc5)CC4)c3s2)cc1` showed a CC50 of 43.6 µM.
`Cc1ccc(-c2cc3nc(NC(C)(C)C)nc(N4CCCC4)c3s2)cc1` gave a CC50 of 17.5 µM.

Tested on: Hepatocyte
Assay: as §1
Format: toxicity, cell-based, Macaca fascicularis
Settings: hepatocytes
Compound `Cc1ccc(-c2cc3nc(NC(C)(C)C)nc(NCCCN(C)C)c3s2)cc1.Cl.Cl` has a CC50 of 35.5 µM.
Compound `Cc1ccc(-c2cc3nc(NC(C)(C)C)nc(NCCN(C)C)c3s2)cc1` has a CC50 of 14 µM.
`Cc1ccc(-c2cc3nc(NC(C)(C)C)nc(NCCN(C)C)c3s2)cc1.Cl.Cl` showed a CC50 of 32.5 µM.

Tested on: not listed separately
Assay: Selectivity index, ratio of CC50 for against Macaca fascicularis Primary hepatocyte to EC50 for hepatic stage of Plasmodium berghei sporozoites GFP ANKA
Format: toxicity
Settings: cynomolgus monkey, primary hepatocytes; read-out: Ratio CC50/EC50
In the case of `Cc1ccc(-c2cc3nc(NC(C)(C)C)[nH]c(=O)c3s2)cc1`, the selectivity ratio is reported as > 8.2.
`Cc1ccc(-c2cc3nc(NC(C)(C)C)nc(N4CCC(C)CC4)c3s2)cc1` showed a selectivity ratio of 1.5.
With `CCN(CC)CCNc1nc(NC(C)(C)C)nc2cc(-c3ccc(C)cc3)sc12` the selectivity ratio was 2.2.
With `Cc1ccc(-c2cc3nc(NC(C)(C)C)nc(N4CCC(NCc5ccc(Br)cc5)CC4)c3s2)cc1` the selectivity ratio was 1.6.
For `COc1ccc(CNC2CCN(c3nc(NC(C)(C)C)nc4cc(-c5ccc(C)cc5)sc34)CC2)cc1`, the selectivity ratio was 2.
`Cc1ccc(-c2cc3nc(NC(C)(C)C)nc(N4CCC(NCc5ccccc5)CC4)c3s2)cc1` gave a selectivity ratio of 2.7.
For `Cc1ccc(-c2cc3nc(NC(C)(C)C)nc(NCCN(C)C)c3s2)cc1`, the selectivity ratio was 1.
Compound `Cc1ccc(-c2cc3nc(NC(C)(C)C)nc(N4CCCC4)c3s2)cc1` has a selectivity ratio of 1.2.

Tested on: not listed separately
Assay: Solubility of the compound in PBS buffer at 1 mg incubated for 10 mins by HPLC analysis
Format: physicochemical
Settings: not given
With `Cc1ccc(-c2cc3nc(NC(C)(C)C)nc(NCCCN(C)C)c3s2)cc1.Cl.Cl` the solubility at 10 min was 1990 µM.
Compound `Cc1ccc(-c2cc3nc(NC(C)(C)C)nc(NCCN(C)C)c3s2)cc1.Cl.Cl` has a solubility at 10 min of 1640 µM.

Tested on: not listed separately
Assay: Chromatographic hydrophobicity index, log D of the compound at pH 7.4 by HPLC analysis
Format: physicochemical
Settings: not given
`Cc1ccc(-c2cc3nc(NC(C)(C)C)nc(NCCCN(C)C)c3s2)cc1.Cl.Cl` gave a chromatographic logD of 4.29.
`Cc1ccc(-c2cc3nc(NC(C)(C)C)nc(NCCN(C)C)c3s2)cc1.Cl.Cl` showed a chromatographic logD of 4.5.

Tested on: not listed separately
Assay: Effective permeability of compound at pH 5 incubated for 4 hrs by PAMPA-GIT assay
Format: ADME
Settings: read-out: Peff
Compound `Cc1ccc(-c2cc3nc(NC(C)(C)C)nc(NCCCN(C)C)c3s2)cc1.Cl.Cl` has a Papp at 4 h of 36.2 ×10⁻⁶ cm/s.
In the case of `Cc1ccc(-c2cc3nc(NC(C)(C)C)nc(NCCN(C)C)c3s2)cc1.Cl.Cl`, the Papp at 4 h is reported as 43 ×10⁻⁶ cm/s.

Tested on: not listed separately
Assay: Effective permeability of compound at pH 6.0 incubated for 4 hrs by PAMPA-GIT assay
Format: ADME
Settings: read-out: Peff
`Cc1ccc(-c2cc3nc(NC(C)(C)C)nc(NCCCN(C)C)c3s2)cc1.Cl.Cl` showed a Papp at 4 h of 47.8 ×10⁻⁶ cm/s.
With `Cc1ccc(-c2cc3nc(NC(C)(C)C)nc(NCCN(C)C)c3s2)cc1.Cl.Cl` the Papp at 4 h was 41.1 ×10⁻⁶ cm/s.

Tested on: not listed separately
Assay: Effective permeability of compound at pH 7.4 incubated for 4 hrs by PAMPA-GIT assay
Format: ADME
Settings: read-out: Peff
`Cc1ccc(-c2cc3nc(NC(C)(C)C)nc(NCCCN(C)C)c3s2)cc1.Cl.Cl` showed a Papp at 4 h of 67.3 ×10⁻⁶ cm/s.
Compound `Cc1ccc(-c2cc3nc(NC(C)(C)C)nc(NCCN(C)C)c3s2)cc1.Cl.Cl` has a Papp at 4 h of 64.9 ×10⁻⁶ cm/s.

Tested on: not listed separately
Assay: Metabolic stability in CD-1 mouse liver microsomes assessed as half life at pH 7.4 measured upto 40 mins in presence of NADP
Format: ADME, Microsome
Settings: not given
For `Cc1ccc(-c2cc3nc(NC(C)(C)C)nc(NCCCN(C)C)c3s2)cc1.Cl.Cl`, the half-life was > 40 min.
`Cc1ccc(-c2cc3nc(NC(C)(C)C)nc(NCCN(C)C)c3s2)cc1.Cl.Cl` gave a half-life of 37 min.

Tested on: not listed separately
Assay: Metabolic stability in CD-1 mouse liver microsomes assessed as intrinsic clearance at pH 7.4 measured upto 40 mins in presence of NADP
Format: ADME, Microsome
Settings: read-out: CLH
Work on `Cc1ccc(-c2cc3nc(NC(C)(C)C)nc(NCCCN(C)C)c3s2)cc1.Cl.Cl` yielded a microsomal CLint of 33 µL/min/mg.
In the case of `Cc1ccc(-c2cc3nc(NC(C)(C)C)nc(NCCN(C)C)c3s2)cc1.Cl.Cl`, the microsomal CLint is reported as 64 µL/min/mg.

Target: Voltage-gated inwardly rectifying potassium channel KCNH2 (Homo sapiens, UniProt Q12809)
Sequence (Q12809 whole entry): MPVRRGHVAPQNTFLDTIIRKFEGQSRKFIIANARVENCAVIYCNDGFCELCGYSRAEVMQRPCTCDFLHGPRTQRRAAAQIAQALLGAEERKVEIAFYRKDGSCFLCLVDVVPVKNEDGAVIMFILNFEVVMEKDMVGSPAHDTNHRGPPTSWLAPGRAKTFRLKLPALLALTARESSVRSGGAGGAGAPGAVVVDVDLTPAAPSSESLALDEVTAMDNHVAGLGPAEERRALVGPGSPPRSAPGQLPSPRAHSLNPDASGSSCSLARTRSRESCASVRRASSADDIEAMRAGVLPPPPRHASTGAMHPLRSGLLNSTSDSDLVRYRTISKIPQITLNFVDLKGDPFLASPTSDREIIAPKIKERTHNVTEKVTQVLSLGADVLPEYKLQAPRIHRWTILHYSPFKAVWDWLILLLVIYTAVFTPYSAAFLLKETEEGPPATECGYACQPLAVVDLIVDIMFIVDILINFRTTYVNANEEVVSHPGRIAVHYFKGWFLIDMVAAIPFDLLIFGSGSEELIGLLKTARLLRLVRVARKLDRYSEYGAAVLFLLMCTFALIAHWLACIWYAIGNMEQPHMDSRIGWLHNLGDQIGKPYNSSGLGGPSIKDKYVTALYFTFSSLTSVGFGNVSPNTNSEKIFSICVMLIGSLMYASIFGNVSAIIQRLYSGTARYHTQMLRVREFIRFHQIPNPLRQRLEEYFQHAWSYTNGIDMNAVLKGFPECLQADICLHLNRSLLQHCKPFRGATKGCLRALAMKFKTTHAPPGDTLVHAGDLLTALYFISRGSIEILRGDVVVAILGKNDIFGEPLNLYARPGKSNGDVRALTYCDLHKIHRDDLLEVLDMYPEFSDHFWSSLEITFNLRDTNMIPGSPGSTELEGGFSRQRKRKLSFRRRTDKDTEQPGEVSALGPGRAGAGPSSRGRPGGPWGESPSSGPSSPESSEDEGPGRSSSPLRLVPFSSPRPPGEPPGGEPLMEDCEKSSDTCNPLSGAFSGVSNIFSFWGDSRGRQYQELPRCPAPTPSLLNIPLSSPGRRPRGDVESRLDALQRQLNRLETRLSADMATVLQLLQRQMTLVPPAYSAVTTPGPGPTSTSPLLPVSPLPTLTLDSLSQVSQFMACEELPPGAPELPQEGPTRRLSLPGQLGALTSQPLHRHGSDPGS
Assay: Inhibition of human ERG incubated for 4 hrs by fluorescence polarization assay
Format: toxicity
Settings: not given
In the case of `Cc1ccc(-c2cc3nc(NC(C)(C)C)nc(NCCCN(C)C)c3s2)cc1.Cl.Cl`, the IC50 is reported as > 100 µM.
`Cc1ccc(-c2cc3nc(NC(C)(C)C)nc(NCCN(C)C)c3s2)cc1.Cl.Cl` gave an IC50 of 3.4 µM.
